According to US8173689B2 (Novartis AG, priority 2006, dated 2012):
Like-named read-outs stand apart in the source and are kept apart here.

Key:
[1] = system: MNFS60 (murine AML cells); test: Cell viability assay in MCSF dependent MNFS60 cells (Cell Titer Glo); type: cell-based; conditions: Mus musculus, tested at about 1 μM, read-out: M-NFS-60 CP percent inhibition
Outline: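 Cells are cultured with 10 ng/ml MCSF and test compound for 72 hrs at 37° C. in 5% CO2. CellTiter-Glo reagent is then added to gauge viable cell number, and EC50s are fitted from triplicates.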

[2] = target: T1, full-length human CSF-1R receptor (Homo sapiens, UniProt P07333); test: In vitro inhibition of CSF-1R receptor tyrosine phosphorylation in transfected HEK293H cells stimulated with MCSF; type: cell-based; conditions: HEK293-H, tested at about 1 μM; HEK293H cells; read-out: pCSF1R percent inhibition
T1 construct: transfected with the full-length human CSF-1R receptor cloned in house; expressed in transfected cells; host or cells: HEK293H (Invitrogen Cat. #11631017)
T1 sequence (P07333 20-972): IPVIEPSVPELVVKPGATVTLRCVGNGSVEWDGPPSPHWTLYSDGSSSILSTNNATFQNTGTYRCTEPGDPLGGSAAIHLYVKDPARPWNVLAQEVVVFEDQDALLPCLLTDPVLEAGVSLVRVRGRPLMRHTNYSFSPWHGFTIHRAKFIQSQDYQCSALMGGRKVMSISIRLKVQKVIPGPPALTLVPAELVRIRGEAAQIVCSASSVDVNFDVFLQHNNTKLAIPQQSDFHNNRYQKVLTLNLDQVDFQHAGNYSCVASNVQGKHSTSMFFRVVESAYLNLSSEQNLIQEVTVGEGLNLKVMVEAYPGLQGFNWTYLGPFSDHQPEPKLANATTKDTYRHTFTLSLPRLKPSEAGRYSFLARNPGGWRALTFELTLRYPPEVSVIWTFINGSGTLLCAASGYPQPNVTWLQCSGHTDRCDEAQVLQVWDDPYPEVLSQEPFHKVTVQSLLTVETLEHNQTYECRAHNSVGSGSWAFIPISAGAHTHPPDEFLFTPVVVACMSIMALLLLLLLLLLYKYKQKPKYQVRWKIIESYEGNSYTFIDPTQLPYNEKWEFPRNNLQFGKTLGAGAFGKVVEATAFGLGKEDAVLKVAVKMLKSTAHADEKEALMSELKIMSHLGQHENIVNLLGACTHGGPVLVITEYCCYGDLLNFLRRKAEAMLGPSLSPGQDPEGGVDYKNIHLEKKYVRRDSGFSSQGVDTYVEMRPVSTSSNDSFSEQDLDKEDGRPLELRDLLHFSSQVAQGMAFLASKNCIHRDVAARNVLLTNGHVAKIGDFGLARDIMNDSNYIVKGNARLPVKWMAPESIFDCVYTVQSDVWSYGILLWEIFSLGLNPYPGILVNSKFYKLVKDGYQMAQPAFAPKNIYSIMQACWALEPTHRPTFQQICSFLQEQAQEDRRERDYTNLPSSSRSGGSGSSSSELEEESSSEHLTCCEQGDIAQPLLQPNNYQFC
Experimental: The lysate was then transferred to total CSF-1R antibody coated 96-well plates that had already been blocked with 3% Blocker A from Mesoscale discovery (MSD) for 2 hours and washed afterwards. Lysates were incubated overnight at 4° C. and the plates were then washed 4× with MSD Tris Wash Buffer. […] The plates were read on the Sector 6000 instrument (MSD). Raw data was imported in Abase and EC50s calculated with XL-fit data analysis software.

[3] = target: T2, cytoplasmic domain of the human CSF-1R (Homo sapiens, UniProt P07333); test: In vitro kinase assay for colony stimulating factor-1 receptor (AlphaScreen); type: biochemical; conditions: tested at about 1 μM; read-out: CSF-1R percent inhibition
T2 construct: Recombinant protein corresponding to the cytoplasmic domain of the human CSF-1R; purchased Invitrogen Corporation, Carlsbad, Calif; PV3249
T2 sequence (P07333 539-972 limits assumed): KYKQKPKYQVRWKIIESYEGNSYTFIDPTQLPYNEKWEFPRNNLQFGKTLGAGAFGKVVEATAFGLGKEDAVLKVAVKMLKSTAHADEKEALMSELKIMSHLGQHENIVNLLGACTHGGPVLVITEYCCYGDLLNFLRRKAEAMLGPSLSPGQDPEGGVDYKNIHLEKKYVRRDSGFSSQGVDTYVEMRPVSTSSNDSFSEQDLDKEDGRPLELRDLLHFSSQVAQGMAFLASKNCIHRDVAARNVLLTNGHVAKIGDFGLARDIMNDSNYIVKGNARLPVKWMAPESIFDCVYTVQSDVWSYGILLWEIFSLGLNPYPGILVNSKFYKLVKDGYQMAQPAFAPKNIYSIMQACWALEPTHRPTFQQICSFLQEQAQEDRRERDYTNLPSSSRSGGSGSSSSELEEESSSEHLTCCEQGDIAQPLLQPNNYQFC
Outline: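 Test compounds, serially diluted threefold starting at 25 μM, were mixed with Hepes buffer (pH 7.5, Mg2+/Mn2+, DTT, BSA, Tween 80) containing 1 μM ATP. Recombinant kinase was present at 4 nM. After stopping, beads were added and plates were read the next day by AlphaScreen.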

kinase domain of PDGFRβ = target: T3, kinase domain of PDGFRβ (Homo sapiens, UniProt P09619); test: Inhibition of PDGFRb kinase signaling in an in vitro biochemical assay (alphascreen); conditions: tested at about 1 μM; read-out: PDGFRβ percent inhibition
T3 construct: The kinase domain of PDGFRβ was assayed in 50 mM Hepes; purchased Invitrogen P3082
T3 sequence (P09619 600-962 limits assumed): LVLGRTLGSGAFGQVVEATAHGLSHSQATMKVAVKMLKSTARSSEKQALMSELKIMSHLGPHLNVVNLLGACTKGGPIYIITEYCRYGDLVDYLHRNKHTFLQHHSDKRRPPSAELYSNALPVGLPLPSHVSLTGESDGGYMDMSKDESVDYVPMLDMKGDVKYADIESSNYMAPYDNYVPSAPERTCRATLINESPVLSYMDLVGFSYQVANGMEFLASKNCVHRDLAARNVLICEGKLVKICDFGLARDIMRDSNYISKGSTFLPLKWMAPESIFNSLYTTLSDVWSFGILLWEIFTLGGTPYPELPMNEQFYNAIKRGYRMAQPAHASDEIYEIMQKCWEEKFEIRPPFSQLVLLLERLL

kinase domain of cKIT = target: T4, kinase domain of cKIT (Homo sapiens, UniProt P10721); test: Inhibition of cKIT kinase signaling in an in vitro biochemical assay (alphascreen); conditions: tested at about 1 μM; read-out: cKit percent inhibition
T4 construct: The kinase domain of cKIT was assayed in 50 mM Hepes; purchased Upstate 14-559
T4 sequence (P10721 589-937 limits assumed): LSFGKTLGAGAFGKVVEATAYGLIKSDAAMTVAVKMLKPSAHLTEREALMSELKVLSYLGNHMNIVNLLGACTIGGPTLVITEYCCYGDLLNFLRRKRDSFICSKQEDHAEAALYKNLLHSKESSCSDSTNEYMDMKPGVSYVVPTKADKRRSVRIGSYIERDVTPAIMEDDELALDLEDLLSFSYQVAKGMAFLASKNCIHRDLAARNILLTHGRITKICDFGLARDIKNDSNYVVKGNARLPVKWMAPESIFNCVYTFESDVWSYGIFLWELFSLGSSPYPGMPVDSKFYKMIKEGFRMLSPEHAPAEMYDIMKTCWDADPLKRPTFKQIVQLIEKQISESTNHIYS

Row | inhibition at 1 µM [2] [%] | inhibition at 1 µM [3] [%] | inhibition at 1 µM (kinase domain of PDGFRβ) [%] | inhibition at 1 µM (kinase domain of cKIT) [%] | SMILES | inhibition at 1 µM ([1]; MNFS60 cells) [%] | inhibition at 1 µM ([1]; MCSF dependent MNFS60 cells) [%]
1 | 80 | 100 |  |  | CNC(=O)c1cc(Oc2ccc3nc(N[C@H](C)c4ccccc4)oc3c2)ccn1 [Compound 2, 4-[2-((R)-1-Phenyl-ethylamino)-benzooxazol-6-yloxy]-pyridine-2-carboxylic acid methylamide] | 63 | 
2 | 91 | 100 |  |  | COc1cc2nccc(Oc3ccc4nc(Nc5ccc6c(c5)OCCO6)oc4c3)c2cc1OC [Compound 4, (2,3-Dihydro-benzo[1,4]dioxin-6-yl)-[6-(6,7-dimethoxy-quinolin-4-yloxy)-benzooxazol-2-yl]-amine] | 100 | 
3 | 93 | 99 |  |  | CNC(=O)c1cc(Oc2ccc3nc(Nc4ccc5c(c4)OCCO5)oc3c2)ccn1 [Compound 5, 4-[2-(2,3-Dihydro-benzo-[1,4]dioxin-6-ylamino)-benzooxazol-6-yloxy]-pyridin-2-carboxylic acid methylamide] | 100 | 
4 | 21 | 94 |  |  | CNC(=O)c1cc(Oc2ccc3nc(N[C@@H](C)c4ccccc4)oc3c2)ccn1 [Compound 7, 4-[2-((S)-1-Phenyl-ethylamino)-benzooxazol-6-yloxy]-pyridin-2-carboxylic acid methylamide] | 17 | 
5 | 92 | 99 |  |  | CNC(=O)c1cc(Oc2ccc3nc(NCc4ccccc4Cl)oc3c2)ccn1 [Compound 8, 4-[2-(2-Chloro-benzylamino)-benzooxazol-6-yloxy]-pyridin-2-carboxylic acid methylamide] | 60 | 
6 | 75 | 99 |  |  | CNC(=O)c1cc(Oc2ccc3nc(NCc4ccc(Cl)cc4Cl)oc3c2)ccn1 [Compound 9, 4-[2-(2,4-Dichloro-benzylamino)-benzooxazol-6-yloxy]-pyridin-2-carboxylic acid methylamide] | 58 | 
7 | 79 | 99 | 35 |  | CNC(=O)c1cc(Oc2ccc3nc(NC4CCCC(C)C4)oc3c2)ccn1 (stereo not drawn) [Compound 10, 4-[2-(3-Methyl-cyclohexyl-amino)-benzooxazol-6-yloxy]-pyridine-2-carboxylic acid methylamide] | 62 | 
8 | 75 | 99 | 65 |  | CNC(=O)c1cc(Oc2ccc3nc(N[C@H]4C[C@H]5C[C@@H]([C@@H]4C)C5(C)C)oc3c2)ccn1 [Compound 13, 4-[2-((1S,2S,3S,5R)-2,6,6-Trimethyl-bicyclo[3.1.1]hept-3-ylamino)-benzooxazol-6-yloxy]-pyridin-2-carboxylic acid methylamide] | 76 | 
9 | 71 | 99 | 85 |  | COc1cc2nccc(Oc3ccc4nc(N[C@H](C)c5ccccc5)oc4c3)c2cc1OC [Compound 14, [6-(6,7-Dimethoxy-quinolin-4-yloxy)-benzooxazol-2-yl]-((R)-1-phenyl-ethyl)-amine] | 56 | 
10 | 92 | 100 | 88 |  | CNC(=O)c1cc(Oc2ccc3nc(NC[C@@H]4C[C@H]5CC[C@@H]4C5(C)C)oc3c2)ccn1 [Compound 15, 4-{2-[((1S,2R,4R)-7,7-Dimethyl-bicyclo[2.2.1]hept-2-ylmethyl)-amino]-benzooxazol-6-yloxy}-pyridin-2-carboxylic acid methylamide] | 97 | 
11 | 81 | 99 | 20 |  | CNC(=O)c1cc(Oc2ccc3nc(NCc4ccccc4F)oc3c2)ccn1 [Compound 16, 4-[2-(2-Fluoro-benzylamino)-benzooxazol-6-yloxy]-pyridin-2-carboxylic acid methylamide] | 25 | 
12 | 98 | 100 |  |  | CNC(=O)c1cc(Oc2ccc3nc(N[C@H]4CCCC[C@@H]4O)sc3c2)ccn1 [Compound 137, 4-[2-((1S,2S)-2-Hydroxy-cyclohexylamino)-benzothiazol-6-yloxy]-pyridine-2-carboxylic acid methylamide] | 100 | 
13 |  | 100 | 100 | 100 | Cn1cc(-c2cc(Oc3ccc4nc(N[C@H](CO)C5CCCCC5)sc4c3)ccn2)cn1 [Example 353, (S)-2-cyclohexyl-2-(6-(2-(1-methyl-1H-pyrazol-4-yl)pyridin-4-yloxy)benzo[d]thiazol-2-ylamino)ethanol] |  | 100
14 |  | 100 | 98 | 100 | C[C@@H](Nc1nc2ccc(Oc3ccnc(-c4cnn(C)c4)c3)cc2s1)C1CCCCC1 [Example 354, (R)-N-(1-cyclohexylethyl)-6-(2-(1-methyl-1H-pyrazol-4-yl)pyridin-4-yloxy)benzo[d]thiazol-2-amine] |  | 100
15 |  | 100 | 99 | 100 | Cn1cc(-c2cc(Oc3ccc4nc(NCc5ccccc5OC(F)F)sc4c3)ccn2)cn1 [Example 356, N-(2-(difluoromethoxy)benzyl)-6-(2-(1-methyl-1H-pyrazol-4-yl)pyridin-4-yloxy)benzo[d]thiazol-2-amine] |  | 100
16 |  | 100 | 44 | 91 | Cn1cc(-c2cc(Oc3ccc4nc(NC[C@@H](O)c5ccccc5)sc4c3)ccn2)cn1 [Example 357, (S)-2-(6-(2-(1-methyl-1H-pyrazol-4-yl)pyridin-4-yloxy)benzo[d]thiazol-2-ylamino)-1-phenylethanol] |  | 100
17 |  | 100 | 99 | 100 | CC(C)C[C@@H](CO)Nc1nc2ccc(Oc3ccnc(-c4cnn(C)c4)c3)cc2s1 [Example 358, (S)-4-methyl-2-(6-(2-(1-methyl-1H-pyrazol-4-yl)pyridin-4-yloxy)benzo[d]thiazol-2-ylamino)pentan-1-ol] |  | 100
18 |  | 100 | 8 | 24 | CNc1cc(Oc2ccc3nc(N[C@@H]4CCCC[C@H]4O)sc3c2)ccn1 [Example 368, (1R,2R)-2-(6-(2-(methylamino)pyridin-4-yloxy)benzo[d]thiazol-2-ylamino)cyclohexanol] |  | 12
19 |  | 100 | 12 | 26 | CCNc1cc(Oc2ccc3nc(N[C@@H]4CCCC[C@H]4O)sc3c2)ccn1 [Example 369, (1R,2R)-2-(6-(2-(ethylamino)pyridin-4-yloxy)benzo[d]thiazol-2-ylamino)cyclohexanol] |  | 44
20 |  | 99 | 41 | 98 | CNC(=O)c1cc(Oc2cc(C)c3nc(NCC4CCCCC4)sc3c2)ccn1 [Example 374, 4-(2-(cyclohexylmethylamino)-4-methylbenzo[d]thiazol-6-yloxy)-N-methylpicolinamide] |  | 3
21 |  | 100 | 38 | 97 | CNC(=O)c1cc(Oc2cc(Cl)c3nc(NCC4CCCCC4)sc3c2)ccn1 [Example 375, 4-(4-chloro-2-(cyclohexylmethylamino)benzo[d]thiazol-6-yloxy)-N-methylpicolinamide] |  | 19
22 |  | 100 | 49 | 75 | CNC(=O)c1cc(Oc2ccc3nc(N[C@@H]4CCCC[C@H]4O)sc3c2C)ccn1 [Example 377, 4-(2-((1R,2R)-2-hydroxycyclohexylamino)-7-methylbenzo[d]thiazol-6-yloxy)-N-methylpicolinamide] |  | 93
